In patent publication US7314968B2, “Transgenic fish and β-catenin signaling pathway model” (University of Washington, priority 2002, dated 2008):

Assays:
hdl = hdl morpholino injection into one-cell TOPdGFP transgenic zebrafish embryos, in situ hybridization and phenotype; type: in vivo
Method: (§1) In Situ Hybridizations: In situ hybridization was performed as described previously (Oxtoby and Jowett, 1993). The GFP probe was made by antisense transcription of TOPdGFP, using a T7 promoter present in the construct. The Probe for hdl was made from a full-length clone isolated in our laboratory, subcloned into pCS2+. Probes for pax2.1 (Krauss et al., 1991), tbx6 (Hug et al., 1997), and lef1 (Dorsky et al., 1999) were made as described previously. Images were taken with a Kodak DC290 digital camera and processed with Adobe Photoshop 5.0.
(§2) Morpholino Injections: Morpholino antisense oligonucleotides targeted to lef1 and hdl were obtained from Gene Tools (Corvallis, Oreg.). lef1 MO sequence: 5′- […]-3′ (SE ID NO:3); hdl MO sequence: 5′- […]-3(SEQ ID NO:4).
(§3) Approximately 1 ng of the morpholinos was injected into one-cell homozygous transgenic embryos that were fixed for in situ hybrid-ization at appropriate stages. Injections of control morpholinos produced no effect on TOPdGFP expression.

lef1 = lef1 morpholino injection into one-cell TOPdGFP transgenic zebrafish embryos, in situ hybridization and phenotype; type: in vivo
Method: as §1, §2, §3

Substance | expression of midbrain marker pax2 (hdl; bud stage) | expression of ventrolateral mesoderm markers spt and tbx6 (hdl; bud stage) | posterior GFP expression (hdl; bud stage) | embryo phenotype (hdl; injection at the one-cell stage, 36 hpf) | anterior TOPdGFP expression (hdl; shield stage or bud stage) | embryo phenotype (lef1; 36 hpf) | TOPdGFP expression in the embryo (lef1; bud stage) | expression of spt and tbx6 (lef1; bud stage) | pax2 expression (lef1; bud stage)
hdl morpholino: Morpholino antisense oligonucleotide targeted to zebrafish hdl, 5′- CTCCGTTTAACTGAGGCATGTTGGC-3 (SEQ ID NO:4), from Gene Tools (all phosphorodiamidate morpholino (PMO)) | anterior expansion | no effect | no effect | phenotype indistinguishable from hdl mutant embryos | does not expand | – | – | – | –
lef1 morpholino: Morpholino antisense oligonucleotide targeted to zebrafish lef1, 5′- CTCCTCCACCTGACAACTGCGGCAT-3′ (SEQ ID NO:3), from Gene Tools (all phosphorodiamidate morpholino (PMO)) | – | – | – | – | – | tail truncations and loss of paraxial mesoderm, but normal head development | striking decrease | decreased expression | no effect
